Measured values from patent publication US12686668B2, “Leukotriene synthesis inhibitors” (Naegis Pharmaceuticals Inc., priority 2019, dated 2026).
Read-outs that look alike come from different tables or passages of the source.

How the values were obtained:
[1] = molecular target: T1, recombinant human leukotriene A4 hydrolase enzyme (Homo sapiens, UniProt P09960); assay: Amino-peptidase assay, PGP; type: biochemical; conditions: concentration not given
T1 construct: purchased Cayman Chemical 10007817
T1 sequence (P09960 1-611): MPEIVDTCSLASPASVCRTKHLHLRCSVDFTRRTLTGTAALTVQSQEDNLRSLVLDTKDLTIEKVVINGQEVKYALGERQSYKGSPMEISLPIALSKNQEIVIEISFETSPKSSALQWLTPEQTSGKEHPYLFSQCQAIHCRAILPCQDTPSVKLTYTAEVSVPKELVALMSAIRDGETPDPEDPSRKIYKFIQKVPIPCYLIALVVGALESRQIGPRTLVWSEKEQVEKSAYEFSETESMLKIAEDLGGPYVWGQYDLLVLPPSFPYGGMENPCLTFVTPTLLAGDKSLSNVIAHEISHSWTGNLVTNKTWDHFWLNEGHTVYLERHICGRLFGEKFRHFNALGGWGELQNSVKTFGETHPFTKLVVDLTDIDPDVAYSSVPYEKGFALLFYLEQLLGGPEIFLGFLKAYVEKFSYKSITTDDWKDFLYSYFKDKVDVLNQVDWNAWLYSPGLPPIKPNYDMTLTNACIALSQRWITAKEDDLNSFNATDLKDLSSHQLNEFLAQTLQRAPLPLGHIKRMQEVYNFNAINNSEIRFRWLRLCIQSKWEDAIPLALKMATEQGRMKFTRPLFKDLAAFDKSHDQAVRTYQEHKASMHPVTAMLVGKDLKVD
Procedure: A series of compound concentrations were pre-incubated with 50 ng of recombinant human leukotriene A4 hydrolase enzyme (Cayman Chemical, 10007817) in 50 L assay buffer (50 mM Tris-HCl, 100 mM KCl). The reaction was stimulated by adding 50 L 1 mM proline-glycine-proline (Bachem, H-7284) and incubated for 30 minutes at 37° C. The reaction was stopped with the addition of 150 μL of glacial acetic acid. The amount of free proline released from the peptide was detected through a reaction with ninhydrin. 150 μL of 25 mg/mL ninhydrin (BDH, B10132) in 60:40 acetic acid/water was added to each sample, and boiled for 30 minutes at 100° C. and once samples had cooled to room temperature, 350 μL of toluene was added to extract the ninhydrin reaction product. The amount of free proline was determined by comparing the absorbance at 520 nm to the L-proline (Sigma Aldrich, 81709) reference standard. Inhibition of free proline production was calculated based on control samples.

[2] = test system: LTB4 production in MC/9 cells; assay: MC/9 HPLC assay, inhibition of LTB4 production; type: cell-based; conditions: Mus musculus
How it was run: (§1)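 MC/9 cells (3×10^6 in HBSS) pre-incubated 30 min with compound, then stimulated 20 min at room temperature with 1 μM A23187. After methanol quench and C18 solid-phase extraction, LTB4 and LTC4 quantified by HPLC against reference standards; inhibition relative to control samples.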

[3] = molecular target: T1, recombinant human leukotriene A4 hydrolase enzyme; assay: Amino-peptidase assay, alanine-4-nitroanalide; type: biochemical; conditions: negative values = augmented peptidase activity, read-out: % Inhibition aminopeptidase-Alanine-4-nitroanalide activity of LTA4H (3 μM)
Procedure: A series of compound concentrations were pre-incubated in the absence of light with 0.5 μg of recombinant human leukotriene A4 hydrolase enzyme (Cayman Chemical 10007817) in 50 μL assay buffer (50 mM Tris-HCl, 100 mM KCl). The reaction was stimulated by adding 50 μL 6 mM alanine-4-nitroanilide (Sigma Aldrich A9325) in assay buffer. The amount of amino-peptidase activity was measured by determining the change in absorbance at 405 nm due to 4-nitroanaline production and comparing the rate of change to a reference standard (Sigma Aldrich 185310). Amino-peptidase activity was compared to control samples and the level of inhibition was calculated. Compounds that augment peptidase activity are represented by negative values.

[4] = test system: LTC4 production in MC/9 cells; assay: MC/9 HPLC assay, inhibition of LTC4 production; type: cell-based; conditions: Mus musculus; for inhibition at 3 µM: MC9, 3 μM, A23187 stimulated
How it was run: as §1

[5] = test system: LTB4 production in porcine or human whole blood; assay: Whole blood HPLC assay, inhibition of LTB4 production; type: cell-based; conditions: 5 point curve, porcine or human whole blood (not specified)
Procedure: Porcine or human whole blood (1 mL) was pre-incubated with a series of concentrations of compound solubilized in DMSO for 30 minutes. Production of leukotrienes were stimulated with the addition of 20 μM calcium ionophore (A23187), diluted from a 4 mM DMSO stock in HBSS, and incubated at room temperature for 20 minutes. In porcine blood 20 μM arachidonic acid was added in addition to the calcium ionophore. The blood was centrifuged at 2,000 rpm for 15 minutes, and the plasma fraction removed for further processing. Plasma samples were diluted with 500 μL acidified water (HCl pH 3.0) and loaded onto C18 SEP-PAK columns (Canadian Lifesciences IS12000) for solid phase extraction. The leukotrienes were analyzed by HPLC using an ACE C18 column (4.5 mm×150 mm, 5 m) eluted with acetonitrile/methanol/water mixture with H3PO4, pH 3.5 (37:26:37) with a flow rate of 1.8 mL/min. The amount of LTB4 (Cayman Chemical, 20110) was calculated based on reference standards and the level of inhibition of LTB4 production induced by the test compounds was calculated relative to control samples. The results provided in Table 3 are IC50 values calculated based on a 5 point curve, where Compound No. refers to the compounds identified in Table 1.

[6] = MC9, Table 2 column 4, no concentration in head (1 μM according to b732), read-out: % Inhibition LTB4
[7] = MC9, Table 2 column 3, no concentration in head (1 μM according to b732), read-out: % Inhibition LTC4

| % Inhibition aminopeptidase-PGP activity of LTA4H [1] | inhibition at 3 µM [3] [%] | IC50 [5] [nM] | SMILES | inhibition at 1 µM ([2]; MC9, 1 μM, read-out: % inhibition LTB4 (1 μM)) [%] | inhibition at 1 µM [2, 6] [%] | inhibition at 1 µM ([4]; MC9, 1 μM, read-out: % inhibition LTC4 (1 μM)) [%] | inhibition at 3 µM [4] [%] | inhibition at 1 µM [4, 7] [%] |
| --- | --- | --- | --- | --- | --- | --- | --- | --- |
| >75% | > 75 | – | CCC(O)CCc1ccc(Oc2nc3ccccc3s2)c(OC2CCCC2)c1 (stereo not shown) [Compound 186, 1-[4-(1,3-benzothiazol-2-yloxy)-3-(cyclopentyloxy)-phenyl]pentan-3-ol] | – | – | – | 70 to 90 | – |
| >75% | 0 to 50 | – | CC(O)(c1ccc(Oc2nc3c(F)cc(F)cc3s2)cc1)C(F)(F)F (stereo not shown) [Compound 181, 2-{4-[(4,6-difluoro-1,3-benzothiazol-2-yl)oxy]phenyl}-1,1,1-trifluoropropan-2-ol] | – | – | – | < 10 | – |
| >75% | > 75 | – | OC(c1ccc(Oc2nc3c(F)cc(F)cc3s2)cc1)C(F)(F)F (stereo not shown) [Compound 179, 1-{4-[(4,6-difluoro-1,3-benzothiazol-2-yl)oxy]phenyl}-2,2,2-trifluoroethanol] | – | – | – | 10 to 30 | – |
| 25-50% | < 25 | – | CCC(CCc1ccc(Oc2nc3ccccc3s2)c(OC)c1)N1CCN(C)CC1 (stereo not shown) [Compound 188, 1-[4-(1,3-benzothiazol-2-yloxy)-3-methoxyphenyl]-3-(4-methylpiperazinyl-1yl)pentane] | – | – | – | 10 to 30 | – |
| 50-75% | > 75 | – | CCC(O)CCc1ccc(Oc2nc3ccccc3s2)c(OCC2CC2)c1 (stereo not shown) [Compound 187, 1-[4-(1,3-benzothiazol-2-yloxy)-3-(cyclopropylmethoxy)-phenyl]-pentan-3-ol] | – | – | – | 50 to 70 | – |
| 25-50% | < 25 | – | CC(CCc1ccc(OCc2ccc3ccccc3n2)cc1)N1CCCC1 (stereo not shown) [Compound 190] | – | – | – | 30 to 50 | – |
| 25-50% | < 25 | 100 to 1000 | COc1cc(CCC(C)(O)C(F)(F)F)ccc1OCc1ccc2ccccc2n1 (stereo not shown) [Compound 184, 1,1,1-trifluoro-4-[3-methoxy-4-(quinolin-2-ylmethoxy)phenyl]-2-methylbutan-2-ol] | – | – | – | – | – |

Further lines, the compound ahead of its results:

| SMILES | % Inhibition aminopeptidase-PGP activity of LTA4H [1] | inhibition at 3 µM [3] [%] | IC50 [5] [nM] | inhibition at 1 µM ([2]; MC9, 1 μM, read-out: % inhibition LTB4 (1 μM)) [%] | inhibition at 1 µM [2, 6] [%] | inhibition at 1 µM ([4]; MC9, 1 μM, read-out: % inhibition LTC4 (1 μM)) [%] | inhibition at 3 µM [4] [%] | inhibition at 1 µM [4, 7] [%] |
| --- | --- | --- | --- | --- | --- | --- | --- | --- |
| CCC(=O)CCc1ccc(Oc2nc3ccccc3s2)c(OC(C)C)c1 [Compound 112, 1-[4-(1,3-benzothiazol-2-yloxy)-3-(iso-propyloxy)-phenyl]pentan-3-one] | <25% | – | – | – | – | – | – | – |
| CCC(O)(CCc1ccc(Oc2nc3ccccc3s2)cc1)C(F)(F)F (stereo not shown) [Compound 150, 1-[4-(1,3-benzothiazol-2-yloxy)phenyl]-3-(trifluoromethyl)pentan-3-ol] | <25% | 25 to 50 | 1000 to 10000 | 50 to 70 | 50 to 70 | 10 to 30 | 70 to 90 | 10 to 30 |
| CCC(=O)CCc1ccc(Oc2nc3ccccc3s2)c(Cl)c1 [Compound 149, 1-[4-(1,3-benzothiazol-2-yloxy)-3-chlorophenyl]pentan-3-one] | 25-50% | < 25 | – | – | 50 to 70 | – | – | 30 to 50 |
| CNC(c1ccc(Oc2nc3ccccc3s2)cc1)C(F)(F)F (stereo not shown) [Compound 178, 1-[4-(1,3-benzothiazol-2-yloxy)phenyl]-2,2,2-trifluoro-N-methylethanamine] | 70-90% | 70 to 90 | – | – | – | – | < 10 | – |
| CC(O)(CCc1ccc(Oc2nc3ccccc3o2)cc1)c1ccccc1 (stereo not shown) [Compound 147, 4-[4-(1,3-benzoxazol-2-yloxy)phenyl]-2-phenylbutan-2-ol] | 25-50% | 50 to 75 | – | – | > 90 | – | – | 30 to 50 |
| CCC(=O)CCc1ccc(Oc2nc3ccccc3s2)c(F)c1 [Compound 152, 1-[4-(1,3-benzothiazol-2-yloxy)-3-fluorophenyl]-pentan-3-one] | 25-50% | < 25 | – | – | 50 to 70 | – | 30 to 50 | 30 to 50 |
